From patent publication US11634434B2, “Bifunctional alpha-synuclein binding agents and uses thereof” (University of Saskatchewan, priority 2016, dated 2023) come the findings set out here.

The test system of experiment [1] is yeast strain 2AS (2 copies of AS-GFP gene). Format: cell-based. On the procedure:
(§1) Third, the drugs were assayed in a yeast model of Parkinson's Disease, which expresses an alpha-synuclein-Green Fluorescent Protein (AS-GFP) construct under the control of a galactose promoter.
Construction of the 1AS and 2AS strains has been described in detail previously.^55 Strains were grown in YPD supplemented with 30 μg/ml of all amino acids. The OD600 was adjusted to 0.05 in drop-out media (no uracil) at 30° C. Drugs were dissolved in methanol at 0.01 micromolar, 0.1 micromolar, 1 micromolar or 10 micromolar followed by addition of 100 micromolar or 5 mM galactose to a final volume of 10 mL.

Experiment [2] relates to male Sprague-Dawley rats with increased alpha-synuclein expression. Briefly: Forced swim test in ASIA-treated rats. The note with it: ASIA + compound 3 mg/kg. The experiment is classed as in vivo, rat. On the procedure: male Sprague-Dawley rats are used (200 g-300 g). All animals are handled ethically following approved protocols. For the first round of studies, rats are divided into five treatment groups:
Rats are subjected to 7-day chronic injection of 3 mg/kg of each test compound, and a forced swim test is conducted after the seventh day to measure motor deficits. […] For a second round of studies, rats are divided into four treatment groups, and the same experiments were repeated:
The forced swim test is carried out by immersing the rat in water that is sufficiently deep to force the rat to swim. The forced swim test is scored based on the following criteria:
Vigor and success are measures of motor function. Immobility is thought to be a measure of depression.^59 Based on videos of the forced swim test, the amount of time that each rat was motionless was calculated as a form of scoring depression for each treatment. Statistical analysis was carried out using an ordinary one-way ANOVA and Tukey multiple comparisons test.

The subject of experiment [3] is alpha-synuclein-GFP aggregation in yeast strain 2AS. The experiment is classed as cell-based. The note with it: 1 micromolar compound, 5 mM galactose. On the procedure: as §1
For Analysis of AS-GFP distribution, the 2AS strain was grown overnight in drop-out media. After normalization of culture density, galactose was administered to a final concentration of 5 mM. […] For the yeast recovery assay, yeast cells were obtained after 6 hours induction with 5 mM galactose concentration, washed in galactose free media and the compounds were added to a final concentration of 1 micromolar in a 2 mL reaction mixture. The culture was incubated at 30° C. for 3, 6, and 9 hour intervals. Images were obtained at each interval using an Olympus Infinity (BX51) fluorescence microscope at 100× magnification.

Experiment [4] deals with T1, alpha-synuclein (Homo sapiens, UniProt P37840). Briefly: Nanopore analysis of alpha-synuclein (blockade current histograms). The note with it: for nanopore profile of additional bifunctional molecules: FIGS. 9A-9D; for binding to alpha-synuclein: method not stated for these compounds. Format: binding. On the procedure: The bifunctional molecules were characterized by four different methods. […] If the compound causes a more compact conformation, then the alpha-synuclein can no longer translocate and it simply bumps into the pore giving rise to a very small change in the blockade current.^44-46
(§2) Nanopore analysis and isothermal titration calorimetry were performed as described previously.^21,54

Experiment [5] has as its target T1, alpha-synuclein. As to the kind of experiment: Isothermal titration calorimetry (ITC) binding to alpha-synuclein. On Bind to N and C?: key: Y indicates yes; N indicates no. The note with it: for # Binding sites: Table 2; for Bind to N and C?: binds to both N and C portions of alpha-synuclein; for # of Binding sites: bifunctional molecules (or monomers) per alpha-synuclein molecule, best fit. On the procedure:
as §2
Background: ITC needs no label: the signal is the heat of the interaction.

The mark [6] stands for this setting: 1 micromolar compound + 100 micromolar galactose.
The mark [7] stands for this setting: 1 micromolar compound + 5 mM galactose.

Read-outs that look alike come from different tables or passages of the source.

For `NC1CCc2ccccc21` (racemic) [(R,S)-1-aminoindan, reference compound], in experiment [1] (setting [6]), the “growth of 2AS yeast” value is “rate of growth which is similar to that shown by the WT strain”. Also, the “immobility in forced swim test” value in experiment [2] is on record as “partially reversed”. Besides, in experiment [2] (last three minutes of the test), the “success in forced swim test” value is given as “some improvement” and the “vigor in forced swim test” value is reported as “some improvement”. In experiment [3], the “formation of foci delayed until (time after induction)” value stood at 9 h.
`CN1CCC[C@H]1c1cccnc1` (racemic) [(R,S)-nicotine, reference compound]: the “growth of 2AS yeast” value in experiment [1] (setting [6]) is “rate of growth which is similar to that shown by the WT strain”. Moreover, the “formation of foci delayed until (time after induction)” value in experiment [3] was 9 h.
Take `Cn1c(=O)c2c(ncn2CCN2CCCC2c2cccnc2)n(C)c1=O` (racemic) [Compound C7-2-N]: the “nanopore profile of additional bifunctional molecules” value in experiment [4] is “bumping peaks, but have a shifted translocation peak visible as well”. In experiment [5], the “# Binding sites” value came to 1; the “Bind to N and C?” value is given as “Y”. For the same molecule, the Ka in experiment [5] (Table 2, ITC) came out at 50000 M⁻¹.
Consider `Cn1c(=O)c2c(ncn2CCCCN2CCCC2c2cccnc2)n(C)c1=O` (racemic) [Compound C7-4-N], for which, in experiment [4], the “nanopore profile of additional bifunctional molecules” value is listed as “bumping peaks, but have a shifted translocation peak visible as well”. Besides, in experiment [5], the “# Binding sites” value was determined as 1; the “Bind to N and C?” value is “Y”. Further, the Ka in experiment [5] (Table 2, ITC) was found to be 3e+06 M⁻¹.
In the case of `Cn1c(=O)c2c(ncn2CCCCCCN2CCCC2c2cccnc2)n(C)c1=O` (racemic) [Compound C7-6-N], in experiment [1] (setting [7]), the “lag before growth rescue / reaching the growth plateau” value was “about 6 hours”. Also, in experiment [5] (ITC in 1.0M KCl), the Ka was determined as 5.1e+06 M⁻¹ and the “# of Binding sites” value was 1. Further, in experiment [5], the “# Binding sites” value is 1; the “Bind to N and C?” value is listed as “Y”. In experiment [5] (Table 2, ITC), the Ka came to 5e+06 M⁻¹.
`Cn1c(=O)c2c(ncn2CCCCCCCCN2CCCC2c2cccnc2)n(C)c1=O` (racemic) [Compound C7-8-N]: the “nanopore profile of additional bifunctional molecules” value in experiment [4] is reported as “bumping peaks, but have a shifted translocation peak visible as well”. For the same molecule, in experiment [5], the “# Binding sites” value amounted to 1; the “Bind to N and C?” value was “Y”. The same molecule had a Ka in experiment [5] (Table 2, ITC) of 4e+06 M⁻¹.
For the molecule `Cn1c(=O)c2c(nc(CCCCCCCCNC3CCc4ccccc43)n2C)n(C)c1=O` (racemic) [Compound C8-8-I], the binding to alpha-synuclein entry in experiment [4] is “bind to alpha-synuclein”.
The same measure, in the same setting: then `Cn1c(=O)c2c(nc(CCCCCCCCN3CCCC3c3cccnc3)n2C)n(C)c1=O` (racemic) [Compound C8-8-N], with “bind to alpha-synuclein”.
On to `NC1CCc2c(F)cccc21` (centres unmarked) [4-Fluoro-indan-1-yl-amine, reference compound], for which, in experiment [5], the “# Binding sites” value came out at 0.5; the “Bind to N and C?” value is on record as “Y”. Moreover, in experiment [5] (Table 2, ITC, read-out: Ka (converted)), the Kd was 333 nM.
For the molecule `Cn1c(=O)c2c(ncn2CCn2cnc3c2c(=O)n(C)c(=O)n3C)n(C)c1=O` [Compound C7-2-C7], the “nanopore profile of additional bifunctional molecules” value in experiment [4] was “significant bumping peaks”. Besides, in experiment [5], the “# Binding sites” value turned out to be 1; the “Bind to N and C?” value is given as “Y”. The Ka in experiment [5] (Table 2, ITC) was 30000 M⁻¹.
With `Cn1c(=O)c2c(ncn2CCNC2CCc3ccccc32)n(C)c1=O` (centres unmarked) [Compound C7-2-I], the “nanopore profile of additional bifunctional molecules” value in experiment [4] was “significant bumping peaks”. Moreover, in experiment [5], the “# Binding sites” value stood at 1; the “Bind to N and C?” value was “Y”. In experiment [5] (Table 2, ITC), the Ka came to 90000 M⁻¹.
Regarding `Cn1c(=O)c2c(ncn2CCCCn2cnc3c2c(=O)n(C)c(=O)n3C)n(C)c1=O` [Compound C7-4-C7], the “nanopore profile of additional bifunctional molecules” value in experiment [4] is reported as “significant bumping peaks”. In experiment [5], the “# Binding sites” value came to 0.5; the “Bind to N and C?” value is reported as “Y”. Besides, in experiment [5] (Table 2, ITC), the Ka stood at 1e+07 M⁻¹.
As to `Cn1c(=O)c2c(ncn2CCCCNC2CCc3ccccc32)n(C)c1=O` (centres unmarked) [Compound C7-4-I], the “nanopore profile of additional bifunctional molecules” value in experiment [4] is “bumping peaks, but have a shifted translocation peak visible as well”. For the same molecule, in experiment [5], the “# Binding sites” value was found to be 1; the “Bind to N and C?” value is recorded as “Y”. The Ka in experiment [5] (Table 2, ITC) came to 5e+06 M⁻¹.
Regarding `Cn1c(=O)c2c(ncn2CCCCCCn2cnc3c2c(=O)n(C)c(=O)n3C)n(C)c1=O` [Compound C7-6-C7], the “growth of 2AS yeast” value in experiment [1] (setting [7]) is on record as “marginal growth rescue”. Further, the “nanopore profile (bumping peak / binding)” value in experiment [4] (1 micromolar alpha-synuclein, 20 micromolar compound, FIG. 3) is “predominantly bumping peaks”. Further, in experiment [5] (ITC in 1.0M KCl), the Ka turned out to be 720000 M⁻¹ and the “# of Binding sites” value stood at 2. Besides, in experiment [5], the “# Binding sites” value worked out at 2; the “Bind to N and C?” value is “Y”. In experiment [5] (Table 2, ITC), this molecule gave a Ka of 700000 M⁻¹.
Take `Cn1c(=O)c2c(ncn2CCCCCCNC2CCc3ccccc32)n(C)c1=O` (centres unmarked) [Compound C7-6-I]: in experiment [1] (setting [7]), the “growth of 2AS yeast” value is “moderate growth” and the “lag before growth rescue / reaching the growth plateau” value was “about 6 hours”. For the same molecule, in experiment [5] (ITC in 1.0M KCl), the Ka worked out at 2.6e+06 M⁻¹ and the “# of Binding sites” value turned out to be 1. In addition, in experiment [5], the “# Binding sites” value came to 1; the “Bind to N and C?” value was “Y”. In addition, the Ka in experiment [5] (Table 2, ITC) worked out at 2e+06 M⁻¹. For the same molecule, the “AS-GFP foci / fluorescence pattern” value in experiment [3] (up to 12 hours) is “more diffuse area of fluorescence”.
In the case of `Cn1c(=O)c2c(ncn2CCCCCCCCn2cnc3c2c(=O)n(C)c(=O)n3C)n(C)c1=O` [Compound C7-8-C7], the “nanopore profile of additional bifunctional molecules” value in experiment [4] is on record as “significant bumping peaks”. In experiment [5], the “# Binding sites” value is 0.5; the “Bind to N and C?” value is given as “Y”. This molecule also returned a Ka in experiment [5] (Table 2, ITC) of 400000 M⁻¹.
On to `Cn1c(=O)c2c(ncn2CCCCCCCCNC2CCc3ccccc32)n(C)c1=O` (centres unmarked) [Compound C7-8-I], for which, in experiment [4], the “nanopore profile of additional bifunctional molecules” value is reported as “bumping peaks, but have a shifted translocation peak visible as well”. In addition, in experiment [5], the “# Binding sites” value is given as 0.5; the “Bind to N and C?” value is listed as “Y”. In experiment [5] (Table 2, ITC), this molecule yielded a Ka of 2e+07 M⁻¹.
Take `Cn1c(=O)c2c(nc(CCc3nc4c(c(=O)n(C)c(=O)n4C)n3C)n2C)n(C)c1=O` [Compound C8-2-C8]: the “nanopore profile of additional bifunctional molecules” value in experiment [4] was “significant bumping peaks”. In addition, in experiment [5], the “# Binding sites” value turned out to be 1; the “Bind to N and C?” value is “Y”. The same molecule showed a Ka in experiment [5] (Table 2, ITC) of 900000 M⁻¹.
For `CN(CCCCCCCc1nc2c(c(=O)n(C)c(=O)n2C)n1C)C(=N)NC(=N)N.Cl` [Compound C8-7-M] the same measures were “significant bumping peaks”, 2, “Y” and 640000 M⁻¹.
Molecule `CN1CCCC1c1cccnc1` (centres unmarked) [Nicotine, nicotine, reference compound] displayed a Kd in experiment [5] (Ka) of 1000 nM. Besides, in experiment [5], the “# Binding sites” value came out at 1; the “Bind to N and C?” value was “Y”.
Consider `N[C@@H]1CCc2ccccc21` [R-Aminoindan, reference compound], for which, in experiment [5] (ITC in 1.0M KCl), the Ka was 1e+06 M⁻¹ and the “# of Binding sites” value was found to be 1. Further, in experiment [5], the “# Binding sites” value is given as 1; the “Bind to N and C?” value was “Y”. The same molecule gave a Ka in experiment [5] (Table 2, ITC) of 1e+06 M⁻¹.
On to `CN1CCC[C@@H]1c1cccnc1` [R-Nicotine, reference compound], for which, in experiment [5] (ITC in 1.0M KCl), the “# of Binding sites” value amounted to 1. The same molecule showed a Kd in experiment [5] (Ka) of 714 nM.
`N[C@H]1CCc2ccccc21` [S-Aminoindan, reference compound]: in experiment [5] (ITC in 1.0M KCl), the Ka worked out at 3.1e+06 M⁻¹ and the “# of Binding sites” value turned out to be 1. Moreover, in experiment [5], the “# Binding sites” value is 1; the “Bind to N and C?” value is recorded as “Y”. In experiment [5] (Table 2, ITC), this molecule had a Ka of 3e+06 M⁻¹.
For `CN1CCC[C@H]1c1cccnc1` [S-Nicotine, reference compound], in experiment [5] (ITC in 1.0M KCl), the Ka came out at 400000 M⁻¹ and the “# of Binding sites” value was determined as 1.
With `C=C(C)[C@H]1Cc2c(ccc3c2O[C@@H]2COc4cc(OC)c(OC)cc4[C@@H]2C3=O)O1` [rotenone, reference compound], the “growth of 2AS yeast” value in experiment [1] (setting [6]) is recorded as “significant reduction of growth”.
